Our source for the Vmax/Km and Ki values is patent publication US6812377B2, “Genetic engineering of syringyl-enriched lignin in plants” (Board of Control of Michigan Technological University, priority 2000, dated 2004).

Assay [1] concerns the target recombinant PtSAD protein (Populus tremuloides, UniProt Q94G59). Kind of assay: Kinetic properties of the recombinant PtSAD protein (HPLC-UV/MS). The class given is biochemical. The following applies: substrate of PtSAD; relative, sinapaldehyde = 100. The protocol: To characterize the enzyme pH optima, the substrate and recombinant PtCAD or PtSAD protein concentrations described above were used in sodium phosphate buffers, pH 5 to 8.5. […] For inhibition kinetics, the PtCAD-mediated reduction of sinapaldehyde (1 to 200 μM) was assayed in the presence of 1 to 5 μM coniferaldehyde, and the PtSAD-catalyzed reduction of coniferaldehyde (1 to 200 μM) was assayed in the presence of 1 to 5 μM sinapaldehyde. All reactions were terminated by the addition of 10 μL of 6 N HCI (to bring the pH to 2) and 500 ng of internal standard o-coumaric acid and analyzed by HPLC-UV/MS. An aliquot of 100 μL of reaction mixture was injected directly onto a Supelcosil LC-ABZ column (15 cm×4.6 mm×5 μm; Supelco, Bellefonte, Pa.) with automatic sample injection and separated isocratically with a Hewlett-Packard (HP) 1100 liquid chromatography system at 40° C. and a flow rate of 0.25 mL/min. […] The reaction products were identified and confirmed by comparing the ion fragmentation patterns of the product and the authentic standard in MS scanning mode at 70 V. The product quantity and Km, Vmax, kcat, and apparent inhibition constant (Ki) values (means±SE) were determined as described (Osakabe et al., 1999; Li et al., 2000). The results of the inhibition kinetics for both the CAD enzyme (i.e. Table 2) and the SAD enzyme (i.e., Table 3) using a variety of substrates are illustrated below.

Assay [2] addresses T1, PtCAD (recombinant coniferyl alcohol dehydrogenase, GenBank AF217957, C-terminal His tag, expressed in E. coli BL21(DE3)) (Populus tremuloides, UniProt Q9M632).
T1 sequence (Q9M632 1-357): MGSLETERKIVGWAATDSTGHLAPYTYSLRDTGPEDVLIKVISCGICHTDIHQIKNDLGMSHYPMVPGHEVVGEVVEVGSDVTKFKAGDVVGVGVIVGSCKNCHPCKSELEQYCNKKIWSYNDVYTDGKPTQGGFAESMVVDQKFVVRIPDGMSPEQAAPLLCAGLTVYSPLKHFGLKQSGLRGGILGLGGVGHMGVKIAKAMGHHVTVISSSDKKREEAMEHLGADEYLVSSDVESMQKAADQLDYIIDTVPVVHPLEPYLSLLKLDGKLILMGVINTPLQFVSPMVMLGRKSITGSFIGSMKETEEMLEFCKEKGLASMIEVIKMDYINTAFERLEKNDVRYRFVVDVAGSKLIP
Kind of assay: Inhibition kinetics of PtCAD: PtCAD-mediated reduction of sinapaldehyde in the presence of coniferaldehyde, HPLC-UV/MS (FIG. 6). The class given is biochemical, Populus tremuloides (quaking aspen). The following applies: coniferaldehyde (1 to 5 μM) as inhibitor of PtCAD-mediated reduction of sinapaldehyde (1 to 200 μM); 500 μM NADPH; 1.2 μg purified recombinant PtCAD; pH 8.0; 4 min; 30° C.; read-out: apparent inhibition constant (Ki). The text has this:
FIG. 6 illustrates inhibition kinetics of PtCAD and PtSAD;
A guaiacyl pathway gene encoding coniferyl alcohol dehydrogenase (CAD, FIG. 1) from Populus tremuloides (GenBank #AF217957) was first cloned. This cDNA was designated as PtCAD (GenBank #AF217957). E. coli-expressed recombinant PtCAD protein was characterized for its catalytic activity with coniferaldehyde and sinapaldehyde. Because monolignol biosynthetic pathway intermediates are present together in lignifying tissues (Osakabe et al., 1999; Li et al. 2000), the PtCAD enzyme activity with a mixture of coniferaldehyde and sinapaldehyde was assayed. As shown in FIG. 5 (a) and (c), the reaction mixture was separated by HPLC after the enzyme reaction. […] Thus, PtCAD has a specific catalytic reaction function with coniferaldehyde for the biosynthesis of guaiacyl monolignol, coniferyl alcohol (FIG. 1). […]
For normal and inhibition kinetic analyses, the reaction time was 4 min and pH was 8.0 for PtCAD (1.2 μg of purified recombinant protein) and 7.0 for PtSAD (0.1 μg). […] All reactions were terminated by the addition of 10 μL of 6 N HCI (to bring the pH to 2) and 500 ng of internal standard o-coumaric acid and analyzed by HPLC-UV/MS. […]

Chain of recombinant PtSAD protein (Q94G59 entry or part of it): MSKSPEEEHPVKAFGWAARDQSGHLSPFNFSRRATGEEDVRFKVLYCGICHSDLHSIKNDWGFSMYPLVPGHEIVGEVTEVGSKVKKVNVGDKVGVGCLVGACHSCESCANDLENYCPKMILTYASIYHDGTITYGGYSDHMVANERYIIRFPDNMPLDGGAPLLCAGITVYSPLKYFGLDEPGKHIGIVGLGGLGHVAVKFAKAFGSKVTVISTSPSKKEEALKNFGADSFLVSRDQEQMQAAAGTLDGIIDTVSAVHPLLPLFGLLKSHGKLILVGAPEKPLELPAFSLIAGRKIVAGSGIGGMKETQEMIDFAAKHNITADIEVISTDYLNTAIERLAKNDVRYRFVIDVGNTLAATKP

Consider `COc1cc(/C=C/C=O)ccc1O` [Coniferaldehyde], for which the Vmax/Km in assay [1] amounted to 26.6%. Further, the Ki in assay [2] is 1700 nM.
